# Article PMC3827198, “Characterisation of AmphiAmR11, an Amphioxus (Branchiostoma floridae) D2-Dopamine-Like G Protein-Coupled Receptor” (PLoS ONE, 2013)
# pEC50: −log10 of the molar value. Structures can show the parent of a compound that is named as a salt.
# How the values were obtained:
# CeDOP2L = system: CeDOP2L; parameters: method as in PMID 12887685; settings: cited from earlier work
# DD2R = system: DD2R; parameters: method as in PMID 12391323; settings: cited from earlier work
# CeDOP2S = system: CeDOP2S; parameters: method as in PMID 12887685; settings: cited from earlier work
# AmphiAmR11 [1] = target: T1, AmphiAmR11 (Branchiostoma floridae, UniProt A0PF35); experiment: Block of tyramine-induced inhibition of forskolin-stimulated cAMP levels in AmphiAmR11-expressing CHO-K1 cells; assay type: cell-based; settings: 1 μM antagonist, 30 nM tyramine, 10 µM forskolin
# T1 sequence (A0PF35 entry or part of it): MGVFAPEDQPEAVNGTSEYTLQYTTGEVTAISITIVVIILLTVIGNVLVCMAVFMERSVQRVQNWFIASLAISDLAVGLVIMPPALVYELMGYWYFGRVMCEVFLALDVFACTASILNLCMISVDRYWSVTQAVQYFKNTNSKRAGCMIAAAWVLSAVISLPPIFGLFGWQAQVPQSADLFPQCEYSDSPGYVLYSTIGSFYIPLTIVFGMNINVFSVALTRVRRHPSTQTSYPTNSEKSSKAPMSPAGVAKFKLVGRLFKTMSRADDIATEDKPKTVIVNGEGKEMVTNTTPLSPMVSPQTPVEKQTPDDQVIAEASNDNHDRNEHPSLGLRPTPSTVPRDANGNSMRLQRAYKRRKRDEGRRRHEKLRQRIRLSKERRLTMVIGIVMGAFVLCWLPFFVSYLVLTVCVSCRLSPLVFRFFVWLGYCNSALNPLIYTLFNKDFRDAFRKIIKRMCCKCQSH
# AmphiAmR11 [2] = target: T1, AmphiAmR11; experiment: ERK1/2 phosphorylation in AmphiAmR11-expressing CHO-K1 cells (Western blotting); assay type: cell-based; settings: for Effect of antagonist on ERK1/2 phosphorylation in the absence of dopamine: 1 μM antagonist
# AmphiAmR11 [3] = target: T1, AmphiAmR11; experiment: Block of dopamine-induced ERK1/2 activation in AmphiAmR11-expressing CHO-K1 cells by antagonists; assay type: cell-based; settings: 1 µM antagonist, 10 nM dopamine, 5 min
# AmphiAmR11 [4] = target: T1, AmphiAmR11; experiment: Inhibition of forskolin-stimulated cAMP levels in AmphiAmR11-expressing CHO-K1 cells (agonist mode); assay type: cell-based
# human 5HT1A receptor = settings: cited from earlier work
# D2-dopamine receptors = system: D2-dopamine receptors; parameters: method as in PMID 10531409, PMID 9572301; settings: cited from earlier work
# D3-dopamine receptors = system: D3-dopamine receptors; parameters: method as in PMID 10531409, PMID 9572301; settings: cited from earlier work
# [5] = system: dopamine-induced ERK1/2 activation; experiment: Effect of pertussis toxin and signalling inhibitors on agonist-induced ERK1/2 activation in AmphiAmR11-expressing CHO-K1 cells; assay type: cell-based, Chinese hamster; settings: 10 µM inhibitor, 10 nM dopamine, 5 minutes
# Protocol: Phospho-extracellular signal-related kinase (Phospho-ERK) levels were determined essentially as described previously. Minor modifications have been described. ERK1/2 phosphorylation levels were quantified by densitometry. The developed films were scanned in and analysed using the software program, Aida. The data generated by Aida was then processed using Microsoft Excel. Values for the kinase expression and activity levels were defined as 100% in the control samples. Student’s T-test (two-tailed and unpaired) was used to test for significance.
# Figure 5 Effect of pertussis toxin and signalling inhibitors on dopamine-induced ERK1/2 activation in AmphiAmR11-expressing CHO-K1 cells. For the pertussis toxin experiment, AmphiAmR11-expressing CHO-K1 cells were pre-incubated with pertussis toxin (200 ng/ml) for 16 hours prior to serum-starvation for 2 hours in the absence of the toxin. Cells were then stimulated for 5 mins with 10 nM dopamine (open bar) or F-12 Hams control (black bar). For all other inhibitors, AmphiAmR11-expressing CHO-K1 cells were serum starved for 2 hours including incubation with 10 µM inhibitor or F-12 Hams control for the final 20 (AG1296 and AG1478) or 30 (PP2, LY294002, Ro31-8220, U0126, U73122 and U73343) minutes. Cells were then stimulated for 5 minutes with 10 nM dopamine […] in the presence of the inhibitor. Basal measurement in the absence of dopamine and inhibitor (first black bar) and the dopamine-only response in the absence of inhibitor (first open bar) are shown. (A) Representative blots from three or four independent experiments. […] Data are expressed as the mean + SEM. n = 3 - 4. DA, dopamine; PTX, pertussis toxin; Ro, Ro 31-8220; LY, LY294002.
# Figure S3. Time courses for the effect of dopamine and tyramine on ERK1/2 phosphorylation in AmphiAmR11-expressing CHO-K1 cells. (A and B) AmphiAmR11-expressing CHO-K1 cells were serum-starved for 2 hours, prior to stimulation with tyramine or dopamine at the specified concentration for the specified length of time. Equal quantities of cell lysates were separated by SDS-PAGE and analysed for pERK or tERK by Western blotting. (C and D): AmphiAmR11-expressing CHO-K1 cells were incubated with pertussis toxin (200 ng/mL) for 16 hours followed by stimulation as described for Figures A and B. (A to D) Representative blot for each condition from three to four independent experiments. (E) Summary of the quantified blots. Data are expressed as the mean ± SEM. n = 3-4. PTX, pertussis toxin; Min, minutes.
# CHO cell cyclic AMP = CHO cell cyclic AMP level after forskolin; assay type: cell-based, Chinese hamster; settings: 10 µM forskolin; basal 5.1 ± 1.7
# Protocol: cAMP levels in stably transfected CHO-K1 cells were determined as described previously, except 100 µM isobutylmethylxanthine (IBMX) was used. cAMP levels are represented as a percentage of basal samples unless otherwise stated. Student’s T-test (two-tailed and unpaired) was used to test for significance. Unless otherwise stated, all data are shown as mean ± SEM. Each data point plotted was the mean of data obtained from at least three experiments. Within each experiment three separate replicate wells were analysed for each condition and the cAMP assays on each of the wells was carried out in duplicate.
# Forskolin was used both to increase basal cAMP levels to make it easier to detect increases and decreases in cAMP levels in the same experiments and also to potentiate responses to agonists to more accurately determine their threshold effects [see 22]. A non-saturating 10 µM concentration of forskolin was used. Basal levels of CHO cell cyclic AMP were 5.1 ± 1.7 pmoles / mg protein (n = 3) and these were raised to 1053.7 ± 4.8 pmoles / mg protein after exposure to 10 µM forskolin. Protein levels were determined using a Bradford assay.
# AmphiAmR11 [6] = target: T1, AmphiAmR11; experiment: Calcium mobilisation in AmphiAmR11-expressing CHO-K1 cells (Fura-2, percentage of responding cells per field of view); assay type: cell-based; settings: 10 nM biogenic amine, compared with dopamine
# Protocol: Stably transfected CHO-K1 cells were assayed for changes in intracellular calcium levels using an Olympus Cell^R imaging system and the fluorescent indicator Fura-2, as described previously, with modifications described by Bayliss et al.. At 1 minute into the experiment, a buffer control was added and at 2 minutes into the experiment, the specified concentration of agonist was added. A single coverslip of cells was used per concentration of agonist and the percentage of cells that responded per field of view was calculated. The results from each coverslip gave an n of 1 and each agonist concentration was repeated at least three times on different days.
# Figure 6 Effect of biogenic amines and calcium pathway inhibitors on calcium mobilisation in AmphiAmR11-expressing CHO-K1 cells. AmphiAmR11-expressing cells were exposed to increasing concentrations (A) or 10 nM (B) of biogenic amines for 3 minutes and the number of responding cells per field of view were calculated. Data are expressed as the mean ± SEM. n ≥ 3. FOV, field of view; DA, dopamine; TA, tyramine; NA, noradrenaline; Adr, adrenaline; OA, octopamine.
# AmphiAmR11 [7] = target: T1, AmphiAmR11; experiment: cell-based; assay type: cell-based
smiles,measurement,setting,value
CN(C)CCCN1c2ccccc2Sc2ccc(Cl)cc21 [chlorpromazine],Effect on dopamine-mediated signalling via CeDOP2L,CeDOP2L,not to affect
same,Effect on dopamine-mediated signalling via DD2R,DD2R,not to affect
same,Effect on dopamine-mediated signalling via CeDOP2S,CeDOP2S,not to affect
"COC(=O)[C@H]1[C@H]2C[C@H]3c4[nH]c5ccccc5c4CCN3C[C@H]2CC[C@@H]1O [rauwolscine, rauwolscine hydrochloride]",Block of tyramine-induced inhibition of forskolin-stimulated cAMP levels,AmphiAmR11 [1],no significant blocking effect
same,Effect of antagonist on ERK1/2 phosphorylation in the absence of dopamine,AmphiAmR11 [2],increase in ERK1/2 phosphorylation
same,Block of dopamine-induced ERK1/2 activation,AmphiAmR11 [3],no significant effect
same,pEC50,AmphiAmR11 [4],6.92
same,Decrease of forskolin-stimulated cAMP levels by antagonist in the absence of agonist,"AmphiAmR11 [4]; 1 μM antagonist, 10 µM forskolin",could inhibit forskolin-stimulated cAMP levels
same,Agonist type at AmphiAmR11 (full or partial),AmphiAmR11 [4]; cAMP assay,full agonists
same,Inhibition of forskolin-stimulated cAMP levels (maximal),"AmphiAmR11 [4]; concentration-response curves, absence of other agonist",greater than 90%
same,Agonist activity at human 5HT1A receptor,human 5HT1A receptor,partial agonist activity
O=c1cc(N2CCOCC2)oc2c(-c3ccccc3)cccc12 [LY294002],Effect on D2-mediated ERK1/2 activation in CHO cells,D2-dopamine receptors,partially reduce
same,Effect on D3-mediated ERK1/2 activation in CHO cells,D3-dopamine receptors,partially reduce
same,Effect of inhibitor on dopamine-induced ERK1/2 phosphorylation,[5],significantly reduced
"C=C[C@@]1(C)CC(=O)[C@]2(O)[C@@]3(C)[C@@H](O)CCC(C)(C)[C@@H]3[C@H](O)[C@H](OC(C)=O)[C@@]2(C)O1 [forskolin, Forskolin]",CHO cell cyclic AMP level after exposure to forskolin,CHO cell cyclic AMP,1053.7 ± 4.8 pmoles / mg protein
"O=C(CCCN1CCC2(CC1)C(=O)NCN2c1ccccc1)c1ccc(F)cc1 [spiperone, spiperone hydrochloride]",Effect on dopamine-mediated signalling via CeDOP2L,CeDOP2L,little or no effect
same,Effect on dopamine-mediated signalling via DD2R,DD2R,little or no effect
same,Effect of antagonist on ERK1/2 phosphorylation in the absence of dopamine,AmphiAmR11 [2],did not exhibit any agonistic properties
same,Block of dopamine-induced ERK1/2 activation,AmphiAmR11 [3],no significant effect
same,Effect on dopamine-mediated signalling via CeDOP2S,CeDOP2S,little or no effect
"CNC[C@H](O)c1ccc(O)c(O)c1 [adrenaline, (-)-adrenaline]",Calcium response at 10 nM,AmphiAmR11 [6],less effective than dopamine
same,Effect on ERK1/2 phosphorylation at 10 nM,AmphiAmR11 [2],not able to increase
same,Concentration dependence of increase in forskolin-stimulated cAMP levels following pertussis toxin,AmphiAmR11 [7],concentration-dependent effects
same,Concentrations coupling AmphiAmR11 to an increase in cAMP levels,AmphiAmR11 [7],above 1 µM
same,Effect on forskolin-stimulated cAMP levels following pertussis toxin treatment,AmphiAmR11 [7],increase in forskolin-stimulated cAMP levels
same,pEC50,AmphiAmR11 [4],5.87
